In patent US20200131249A1, “NOVEL PROTEINS AND USE THEREOF” (EVOLVERITAS KFT., priority 2017, published 2020):
Where no end group is shown, it is not given here.

Experiments:
[1] = system: lectin pathway; assay: Lectin pathway activation tests in rat serum, all three assays (C3, C4, C5b-9 deposition); assay type: biochemical; settings: result in words
Procedure: ELISA-based complement lectin pathway activation tests were performed on mannan coated plates using diluted individual (not pooled) rat serum. In these tests, inhibitory efficiencies of the protein of SEQ ID NO: 14 and SGMI-2 were compared. Three different assays were conducted that detect the deposition of C3, C4 or the terminal complement antigen C5b-9, respectively.
96-well Greiner high binding ELISA plates (cat. no. 655061) were coated with 100 μl/well 10 μg/ml mannan dissolved in coating buffer (50 mM sodium-carbonate pH 9.6) overnight at 4° C. Control wells contained coating buffer alone. Wells were blocked for at least 1 h at 37° C. with 200 μl/well
10 mg/ml bovine serum albumin (BSA) dissolved in 50 mM Tris pH 7.4, 150 mM NaCl, 0.1% Tween-20 buffer. Serial dilutions of the inhibitors were made in 10 mM HEPES pH 7.4, 150 mM NaCl, 5 mM CaCl2, 5 mM MgCl2, 0.1% Tween-20 buffer (serum dilution buffer). Rat serum was thawed on ice and diluted 35-fold in serum dilution buffer. […]
50 mM Tris pH 7.4, 150 mM NaCl, 5 mM CaCl2, 0.1% Tween-20 buffer (washing buffer) and 100 μl of the serum-inhibitor samples were transferred onto the plate. […] The 490 nm absorbance values were recorded using a PerkinElmer EnSpire multimode plate reader. Four parallels were measured for each data point. […]

[2] = system: alternative pathway; assay: C3 deposition ELISA with rat serum on LPS coated plates; assay type: biochemical; settings: final concentrations as high as 50 μM; 6-fold diluted rat serum
Procedure: ELISA-based complement classical and alternative pathway activation tests were performed on IgG or lipopolysaccharide (LPS) coated plates, respectively, using diluted individual (not pooled) rat serum. In these tests, inhibitory efficiencies of the protein of SEQ ID NO: 14 and SGMI-2 were compared and C3 deposition was used for quantification of the complement activation.
The buffers, incubation times, incubation temperatures and antibodies were the same as described in point 4.5.1.
The final dilution of the rat serum was 6-fold. The dilution of the primary antibody was 3000-fold.

SEQ ID NO: 14: TFPI-D2 variant protein with inhibitor loop PCRAVKR (SEQ ID NO: 4) (KPDFCFLEEDPGPCRAVKRRYFYNNQTKQCERFKYGGCLGNMNNFETLEECKNICEDG; ends and bridges not checked; cysteine pairing not given here)
inhibition of the lectin pathway in rat serum [1]: completely inhibit
inhibition of the alternative pathway in rat serum [2]: neither the protein of SEQ ID NO: 14 nor SGMI-2 were able to inhibit

SGMI-2 (GSGEVTCEPGTTFKDKCNTCRCGSDGKSAVCTKLWCNQ; Synthetic protein of insect origin) [reference compound]
inhibition of the lectin pathway in rat serum [1]: completely inhibit
inhibition of the alternative pathway in rat serum [2]: neither the protein of SEQ ID NO: 14 nor SGMI-2 were able to inhibit
